Results published in US5977133A, “Pyridone antibiotic with improved safety profile” (priority 1998, dated 1999).
Counter-ions that a name gives are not always drawn. Like-named read-outs stand apart in the source and are kept apart here.

Assays:
Format in all cases: cell-based
[1] = tested on: E. faecium (CiproS); assay: In vitro MIC, agar dilution; details: Enterococcus faecium
[2] = tested on: S. aureus (CiproS); assay: In vitro MIC, agar dilution; details: Staphylococcus aureus
[3] = tested on: C. freundii; assay: In vitro MIC, agar dilution; details: Citrobacter freundii
[4] = tested on: Shigella spp.; assay: microbe, parasite or virus in culture; details: read-out: MIC Range
[5] = tested on: P. mirabilis; assay: In vitro MIC, agar dilution; details: Proteus mirabilis
[6] = tested on: S. aureus (CiproR); assay: In vitro MIC, agar dilution; details: Staphylococcus aureus
[7] = tested on: E. faecalis (VanS); assay: In vitro MIC, agar dilution; details: Enterococcus faecalis
[8] = tested on: Enterobacter spp.; assay: In vitro MIC, agar dilution
[9] = tested on: P. aeruginosa (CiproS); assay: In vitro MIC, agar dilution; details: Pseudomonas aeruginosa, P. aeruginosa (CiproS), 24 isolates
[10] = tested on: B. fragilis; assay: In vitro MIC, agar dilution
[11] = tested on: S. pneumoniae (PenR); assay: In vitro MIC, agar dilution; details: Streptococcus pneumoniae
[12] = tested on: S. pyogenes; assay: In vitro MIC, agar dilution; details: Streptococcus pyogenes
[13] = tested on: S. epidermidis (CiproS); assay: In vitro MIC, agar dilution; details: Staphylococcus epidermidis
[14] = tested on: M. pneumoniae; assay: In vitro MIC, agar dilution; details: Mycoplasmoides pneumoniae; M. pneumoniae, 7 isolates; read-out: MIC Range
[15] = tested on: H. influenzae; assay: In vitro MIC, agar dilution; details: Haemophilus influenzae, H. influenzae, 18 isolates
[16] = tested on: C. difficile; assay: In vitro MIC, agar dilution; details: C. difficile
[17] = tested on: M. catarrhalis; assay: In vitro MIC, agar dilution; details: Moraxella catarrhalis
[18] = tested on: M. avium; assay: In vitro MIC, agar dilution; details: Mycobacterium avium
[19] = tested on: P. aeruginosa (CiproR); assay: In vitro MIC, agar dilution
[20] = tested on: S. epidermidis (CiproR); assay: In vitro MIC, agar dilution; details: Staphylococcus epidermidis
[21] = tested on: H. pylori; assay: In vitro MIC, agar dilution; details: Helicobacter pylori
[22] = tested on: N. gonorrhoeae; assay: In vitro MIC, agar dilution; details: Neisseria gonorrhoeae
[23] = tested on: Providencia spp.; assay: In vitro MIC, agar dilution
[24] = tested on: E. coli; assay: In vitro MIC, agar dilution; details: Escherichia coli, 25 isolates
Summary of the method: (§1)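 Agar dilution plates were inoculated with ~10^4 CFU per spot by replicator, using 1:100 dilutions (1:10 for slow growers) and incubated at 35–37 °C for 20–24 h. MIC is the lowest concentration giving no growth, where slight haze or sparse colonies count as none, judged against a compound-free BHI agar control.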

[25] = tested on: Salmonella spp.; assay: In vitro MIC, agar dilution; details: 23 isolates
Summary of the method: as §1

[26] = tested on: Enterococcus spp. (VanR); assay: In vitro MIC, agar dilution; details: Enterococcus spp. (VanR), 21 isolates
[27] = tested on: E. faecium (CiproR); assay: In vitro MIC, agar dilution; details: Enterococcus faecium; E. faecium (CiproR), 2 isolates; read-out: MIC Range

Molecule `CN[C@@H]1CN(c2c(F)cn3c(=O)c(C(=O)O)cc(C4CC4)c3c2C)CC12CC2` [Example 1, 1-cyclopropyl-8-(7(S)-N-methylamino-5-azaspiro[2.4]heptyl)-7-fluoro-9-methyl-4-oxo-4H-guinolizine-3-carboxylic acid hydrochloride] has an MIC ([1]; read-out: MIC Range) of 0.25 to 1 µg/mL, an MIC50 ([1]; E. faecium (CiproS), 16 isolates, read-out: MIC50) of 0.5 µg/mL and an MIC90 ([1]; E. faecium (CiproS), 16 isolates, read-out: MIC90) of 1 µg/mL. It also gave an MIC90 [2] of 0.03 µg/mL, an MIC50 ([2]; S. aureus (CiproS), 21 isolates, read-out: MIC50) of 0.015 µg/mL and an MIC ([2]; S. aureus (CiproS), 21 isolates, read-out: MIC Range) of 0.015 to 0.03 µg/mL. It also gave an MIC50 [3] of 0.03 µg/mL, an MIC90 [3] of 0.25 µg/mL and an MIC ([3]; C. freundii, 20 isolates, read-out: MIC Range) of 0.015 to 0.25 µg/mL. It also gave an MIC [4] of 0.002 to 0.15 µg/mL, an MIC90 [5] of 0.12 µg/mL and an MIC ([5]; read-out: MIC Range) of 0.03 to 0.25 µg/mL. For the same molecule, the MIC50 ([5]; P. mirabilis, 20 isolates, read-out: MIC50) was 0.12 µg/mL, the MIC90 [6] was 0.5 µg/mL and the MIC50 ([6]; S. aureus (CiproR), 25 isolates, read-out: MIC50) was 0.5 µg/mL. The MIC ([6]; S. aureus (CiproR), 25 isolates, read-out: MIC Range) was 0.015 to 0.5 µg/mL, the MIC90 [7] was 0.25 µg/mL and the MIC ([7]; read-out: MIC Range) was 0.12 to 0.25 µg/mL. The MIC50 ([7]; E. faecalis (VanS), 17 isolates, read-out: MIC50) was 0.12 µg/mL, the MIC90 ([8]; Enterobacter) was 0.03 µg/mL and the MIC50 ([8]; Enterobacter spp., 35 isolates, read-out: MIC50) was 0.015 µg/mL. For the same molecule, the MIC ([8]; Enterobacter spp., 35 isolates, read-out: MIC Range) was 0.008 to 0.12 µg/mL, the MIC50 ([9]; read-out: MIC50) was 0.5 µg/mL and the MIC90 ([9]; read-out: MIC90) was 2 µg/mL. For the same molecule, the MIC ([9]; read-out: MIC Range) was 0.12 to 4 µg/mL, the MIC90 ([10]; B. fragilis, 18 isolates) was 0.12 µg/mL and the MIC ([10]; Bacteroides fragilis, read-out: MIC Range) was 0.06 to 0.12 µg/mL. The MIC50 ([10]; Bacteroides fragilis, B. fragilis, 18 isolates, read-out: MIC50) was 0.06 µg/mL, the MIC90 ([10]; Bacteroides fragilis, B. fragilis, read-out: MIC90) was 0.12 µg/mL and the MIC90 [11] was 0.06 µg/mL. For the same molecule, the MIC50 ([11]; S. pneumoniae (PenR), 25 isolates, read-out: MIC50) was 0.06 µg/mL, the MIC ([11]; S. pneumoniae (PenR), 25 isolates, read-out: MIC Range) was 0.03 to 0.06 µg/mL and the MIC50 [12] was 0.03 µg/mL. It also gave an MIC90 [12] of 0.06 µg/mL, an MIC ([12]; S. pyogenes, 21 isolates, read-out: MIC Range) of 0.03 to 0.06 µg/mL and an MIC90 [13] of 0.03 µg/mL. For the same molecule, the MIC50 ([13]; S. epidermidis (CiproS), 23 isolates, read-out: MIC50) was 0.015 µg/mL, the MIC ([13]; S. epidermidis (CiproS), 23 isolates, read-out: MIC Range) was 0.015 to 0.03 µg/mL and the MIC [14] was 0.015 to 0.03 µg/mL. For the same molecule, the MIC50 ([15]; read-out: MIC50) was 0.004 µg/mL, the MIC90 ([15]; read-out: MIC90) was 0.008 µg/mL and the MIC ([15]; read-out: MIC Range) was 0.002 to 0.015 µg/mL. The MIC90 ([16]; 10 isolates) was 0.5 µg/mL, the MIC50 ([16]; Clostridioides difficile, 10 isolates, read-out: MIC50) was 0.5 µg/mL and the MIC ([16]; Clostridioides difficile, 10 isolates, read-out: MIC Range) was 0.5 µg/mL. The MIC90 ([16]; Clostridioides difficile, read-out: MIC90) was 0.5 µg/mL, the MIC90 [17] was 0.03 µg/mL and the MIC50 ([17]; M. catarrhalis, 18 isolates, read-out: MIC50) was 0.015 µg/mL. The MIC ([17]; M. catarrhalis, 18 isolates, read-out: MIC Range) was 0.008 to 0.03 µg/mL, the MIC ([18]; read-out: MIC Range) was 0.25 to 8 µg/mL and the MIC50 ([18]; M. avium, 20 isolates, read-out: MIC50) was 1 µg/mL. The MIC90 ([18]; M. avium, 20 isolates, read-out: MIC90) was 4 µg/mL, the MIC50 ([19]; Pseudomonas aeruginosa, P. aeruginosa (CiproR), 20 isolates, read-out: MIC50) was 8 µg/mL and the MIC90 ([19]; Pseudomonas aeruginosa, P. aeruginosa (CiproR), 20 isolates, read-out: MIC90) was 16 µg/mL. For the same molecule, the MIC ([19]; Pseudomonas aeruginosa, P. aeruginosa (CiproR), 20 isolates, read-out: MIC Range) was 4 to 32 µg/mL, the MIC90 ([19]; ciprofloxacin resistant P. aeruginosa strains) was 16 (g/mL and the MIC90 [20] was 0.5 µg/mL. The MIC ([20]; read-out: MIC Range) was 0.12 to 2 µg/mL, the MIC50 ([20]; S. epidermidis (CiproR), 11 isolates, read-out: MIC50) was 0.25 µg/mL and the MIC50 [21] was 0.03 µg/mL. For the same molecule, the MIC90 [21] was 0.03 µg/mL, the MIC ([21]; H. pylori, 17 isolates, read-out: MIC Range) was 0.008 to 0.03 µg/mL and the MIC90 [22] was 0.004 µg/mL. It also gave an MIC50 ([22]; N. gonorrhoeae, 12 isolates, read-out: MIC50) of 0.002 µg/mL, an MIC ([22]; N. gonorrhoeae, 12 isolates, read-out: MIC Range) of 0.001 to 0.015 µg/mL and an MIC90 ([23]; Providencia) of 0.25 µg/mL. The MIC50 ([23]; Providencia spp., 28 isolates, read-out: MIC50) was 0.06 µg/mL, the MIC ([23]; Providencia spp., 28 isolates, read-out: MIC Range) was 0.015 to 1 µg/mL and the MIC [24] was 0.004 to 0.015 µg/mL. For the same molecule, the MIC50 ([24]; read-out: MIC50) was 0.015 µg/mL, the MIC90 ([24]; read-out: MIC90) was 0.015 µg/mL and the MIC [25] was 0.004 to 0.12 µg/mL. The MIC50 ([25]; read-out: MIC50) was 0.03 µg/mL, the MIC90 ([25]; read-out: MIC90) was 0.03 µg/mL and the MIC50 ([26]; read-out: MIC50) was 0.5 µg/mL. It also gave an MIC90 ([26]; read-out: MIC90) of 1 µg/mL, an MIC ([26]; read-out: MIC Range) of 0.06 to 4 µg/mL and an MIC [27] of 0.5 to 4 µg/mL.
